Assays:
Test in all cases: relative viability (nuclei count vs DMSO), 5 days (fraction); higher = more cells survive
BEN = tested on: BEN
How it was run: (§1)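 Relative viability equals treated-well nuclei counts divided by vehicle-well nuclei counts. Counts came from 4× images of lung cancer cell lines grown in 1536-well plates for 5 days after pin-tool dosing on the day after seeding. Dosing used one drug alone or a fixed anchor-drug dose plus five library-drug doses (not always all listed) in √10 steps, and values are medians of duplicate plates.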

NCI-H838 = tested on: NCI-H838
How it was run: as §1

LCLC-97TM1 = tested on: LCLC-97TM1
How it was run: as §1

HOP-62 = tested on: HOP-62
How it was run: as §1

LOU-NH91 = tested on: LOU-NH91
How it was run: as §1

NCI-H1355 = tested on: NCI-H1355
How it was run: as §1

NCI-H1651 = tested on: NCI-H1651
How it was run: as §1

SK-LU-1 = tested on: SK-LU-1
How it was run: as §1

SW 1573 = tested on: SW 1573
How it was run: as §1

201T = tested on: 201T
How it was run: as §1

NCI-H3122 = tested on: NCI-H3122
How it was run: as §1

NCI-H441 = tested on: NCI-H441
How it was run: as §1

NCI-H1915 = tested on: NCI-H1915
How it was run: as §1

NCI-H2347 = tested on: NCI-H2347
How it was run: as §1

NCI-H650 = tested on: NCI-H650
How it was run: as §1

CAL-12T = tested on: CAL-12T
How it was run: as §1

NCI-H1563 = tested on: NCI-H1563
How it was run: as §1

NCI-H322M = tested on: NCI-H322M
How it was run: as §1

HCC-78 = tested on: HCC-78
How it was run: as §1

NCI-H1395 = tested on: NCI-H1395
How it was run: as §1

NCI-H2126 = tested on: NCI-H2126
How it was run: as §1

NCI-H1944 = tested on: NCI-H1944
How it was run: as §1

NCI-H1793 = tested on: NCI-H1793
How it was run: as §1

`Cc1csc(=NC2CCCCC2)n1/N=C/c1ccc(O)c(O)c1O` [MIM1] + CS(=O)(=O)N1CCN(Cc2cc3nc(-c4cccc5[nH]ncc45)nc(N4CCOCC4)c3s2)CC1 [Pictilisib] (partner 1 µM) showed a relative viability (BEN; first compound 0.2 µM) of 0.607, a relative viability (BEN; first compound 0.6325 µM) of 0.594 and a relative viability (BEN; first compound 2 µM) of 0.604. The relative viability (BEN; first compound 6.325 µM) was 0.531, the relative viability (BEN; first compound 20 µM) was 0.279 and the relative viability (NCI-H838; first compound 0.2 µM) was 0.415. The relative viability (NCI-H838; first compound 0.6325 µM) was 0.468, the relative viability (NCI-H838; first compound 2 µM) was 0.397 and the relative viability (NCI-H838; first compound 6.325 µM) was 0.357. The relative viability (NCI-H838; first compound 20 µM) was 0.2, the relative viability (LCLC-97TM1; first compound 0.2 µM) was 0.22 and the relative viability (LCLC-97TM1; first compound 0.6325 µM) was 0.178. It also gave a relative viability (LCLC-97TM1; first compound 2 µM) of 0.228, a relative viability (LCLC-97TM1; first compound 6.325 µM) of 0.18 and a relative viability (LCLC-97TM1; first compound 20 µM) of 0.108. The relative viability (HOP-62; first compound 0.2 µM) was 0.803, the relative viability (HOP-62; first compound 0.6325 µM) was 0.437 and the relative viability (HOP-62; first compound 2 µM) was 0.724. The relative viability (HOP-62; first compound 6.325 µM) was 0.642, the relative viability (HOP-62; first compound 20 µM) was 0.127 and the relative viability (LOU-NH91; first compound 0.2 µM) was 0.534. For the same compound, the relative viability (LOU-NH91; first compound 0.6325 µM) was 0.524, the relative viability (LOU-NH91; first compound 2 µM) was 0.47 and the relative viability (LOU-NH91; first compound 6.325 µM) was 0.506. For the same compound, the relative viability (LOU-NH91; first compound 20 µM) was 0.382, the relative viability (NCI-H1355; first compound 0.2 µM) was 0.402 and the relative viability (NCI-H1355; first compound 0.6325 µM) was 0.392. For the same compound, the relative viability (NCI-H1355; first compound 2 µM) was 0.435, the relative viability (NCI-H1355; first compound 6.325 µM) was 0.376 and the relative viability (NCI-H1355; first compound 20 µM) was 0.234. The relative viability (NCI-H1651; first compound 0.2 µM) was 0.646, the relative viability (NCI-H1651; first compound 0.6325 µM) was 0.646 and the relative viability (NCI-H1651; first compound 2 µM) was 0.75. The relative viability (NCI-H1651; first compound 6.325 µM) was 0.542, the relative viability (NCI-H1651; first compound 20 µM) was 0.298 and the relative viability (SK-LU-1; first compound 0.2 µM) was 0.636. For the same compound, the relative viability (SK-LU-1; first compound 0.6325 µM) was 0.594, the relative viability (SK-LU-1; first compound 2 µM) was 0.625 and the relative viability (SK-LU-1; first compound 6.325 µM) was 0.466. For the same compound, the relative viability (SK-LU-1; first compound 20 µM) was 0.354, the relative viability (SW 1573; first compound 0.2 µM) was 0.478 and the relative viability (SW 1573; first compound 0.6325 µM) was 0.508. The relative viability (SW 1573; first compound 2 µM) was 0.592, the relative viability (SW 1573; first compound 6.325 µM) was 0.461 and the relative viability (SW 1573; first compound 20 µM) was 0.35. The relative viability (201T; first compound 0.2 µM) was 0.688, the relative viability (201T; first compound 0.6325 µM) was 0.659 and the relative viability (201T; first compound 2 µM) was 0.645. For the same compound, the relative viability (201T; first compound 6.325 µM) was 0.654, the relative viability (201T; first compound 20 µM) was 0.61 and the relative viability (NCI-H3122; first compound 0.2 µM) was 0.644. For the same compound, the relative viability (NCI-H3122; first compound 0.6325 µM) was 0.529, the relative viability (NCI-H3122; first compound 2 µM) was 0.701 and the relative viability (NCI-H3122; first compound 6.325 µM) was 0.578. For the same compound, the relative viability (NCI-H3122; first compound 20 µM) was 0.394, the relative viability (NCI-H441; first compound 0.2 µM) was 0.541 and the relative viability (NCI-H441; first compound 0.6325 µM) was 0.468. It also gave a relative viability (NCI-H441; first compound 2 µM) of 0.539, a relative viability (NCI-H441; first compound 6.325 µM) of 0.382 and a relative viability (NCI-H441; first compound 20 µM) of 0.147. The relative viability (NCI-H1915; first compound 0.2 µM) was 1, the relative viability (NCI-H1915; first compound 0.6325 µM) was 0.606 and the relative viability (NCI-H1915; first compound 2 µM) was 0.883. It also gave a relative viability (NCI-H1915; first compound 6.325 µM) of 0.708, a relative viability (NCI-H1915; first compound 20 µM) of 0.477 and a relative viability (NCI-H2347; first compound 0.2 µM) of 0.885. For the same compound, the relative viability (NCI-H2347; first compound 0.6325 µM) was 0.733, the relative viability (NCI-H2347; first compound 2 µM) was 0.72 and the relative viability (NCI-H2347; first compound 6.325 µM) was 0.619. For the same compound, the relative viability (NCI-H2347; first compound 20 µM) was 0.359, the relative viability (NCI-H650; first compound 0.2 µM) was 0.988 and the relative viability (NCI-H650; first compound 0.6325 µM) was 0.944. It also gave a relative viability (NCI-H650; first compound 2 µM) of 0.987, a relative viability (NCI-H650; first compound 6.325 µM) of 0.975 and a relative viability (NCI-H650; first compound 20 µM) of 0.505. The relative viability (CAL-12T; first compound 0.2 µM) was 0.394, the relative viability (CAL-12T; first compound 2 µM) was 0.473 and the relative viability (CAL-12T; first compound 6.325 µM) was 0.453. The relative viability (CAL-12T; first compound 20 µM) was 0.233, the relative viability (NCI-H1563; first compound 0.2 µM) was 0.628 and the relative viability (NCI-H1563; first compound 0.6325 µM) was 0.672. It also gave a relative viability (NCI-H1563; first compound 2 µM) of 0.636, a relative viability (NCI-H1563; first compound 6.325 µM) of 0.61 and a relative viability (NCI-H1563; first compound 20 µM) of 0.4. The relative viability (NCI-H322M; first compound 0.2 µM) was 0.565, the relative viability (NCI-H322M; first compound 0.6325 µM) was 0.497 and the relative viability (NCI-H322M; first compound 2 µM) was 0.511. For the same compound, the relative viability (NCI-H322M; first compound 6.325 µM) was 0.477, the relative viability (NCI-H322M; first compound 20 µM) was 0.698 and the relative viability (HCC-78; first compound 0.2 µM) was 0.251. It also gave a relative viability (HCC-78; first compound 0.6325 µM) of 0.23, a relative viability (HCC-78; first compound 2 µM) of 0.228 and a relative viability (HCC-78; first compound 6.325 µM) of 0.34. For the same compound, the relative viability (HCC-78; first compound 20 µM) was 0.185, the relative viability (NCI-H1395; first compound 0.2 µM) was 0.666 and the relative viability (NCI-H1395; first compound 0.6325 µM) was 0.61. The relative viability (NCI-H1395; first compound 2 µM) was 0.509, the relative viability (NCI-H1395; first compound 6.325 µM) was 0.377 and the relative viability (NCI-H1395; first compound 20 µM) was 0.365. It also gave a relative viability (NCI-H2126; first compound 0.2 µM) of 0.516, a relative viability (NCI-H2126; first compound 0.6325 µM) of 0.481 and a relative viability (NCI-H2126; first compound 2 µM) of 0.482. The relative viability (NCI-H2126; first compound 6.325 µM) was 0.467, the relative viability (NCI-H2126; first compound 20 µM) was 0.344 and the relative viability (NCI-H1944; first compound 0.2 µM) was 0.394. It also gave a relative viability (NCI-H1944; first compound 0.6325 µM) of 0.335, a relative viability (NCI-H1944; first compound 2 µM) of 0.296 and a relative viability (NCI-H1944; first compound 6.325 µM) of 0.34. The relative viability (NCI-H1944; first compound 20 µM) was 0.384, the relative viability (NCI-H1793; first compound 0.2 µM) was 0.402 and the relative viability (NCI-H1793; first compound 0.6325 µM) was 0.314. For the same compound, the relative viability (NCI-H1793; first compound 2 µM) was 0.344, the relative viability (NCI-H1793; first compound 6.325 µM) was 0.34 and the relative viability (NCI-H1793; first compound 20 µM) was 0.217.
